Measured values reported in patent publication US11779582B2, “Composition for preventing or treating metastatic ovarian cancer, endometrial cancer or breast cancer” (LEMONEX INC., priority 2017, dated 2023).

What was measured:
[1] = system: HEC1B endometrial cancer cell line (2D monolayer culture); assay: crystal violet staining and morphology, paclitaxel in combination with BGJ398; format: cell-based
Procedure: (§1) With respect to the cancer cell lines listed in Table 2 below, synergistic effects of paclitaxel and BGJ398 were further examined. According to the same procedures as described in the previous examples, each cell line was divided and cultured by 2D monolayer culture and 3D sphere culture, respectively. Then, a change due to administration of BGJ398 alone or in combination with paclitaxel was analyzed through morphological analysis.

[2] = system: Hs578T breast cancer cell line (2D monolayer culture); assay: as above; format: cell-based
Procedure: as §1

## CCN1CCN(c2ccc(Nc3cc(N(C)C(=O)Nc4c(Cl)c(OC)cc(OC)c4Cl)ncn3)cc2)CC1 [BGJ398, 3-(2,6-dichloro-3,5-dimethoxyphenyl)-1-[6-[4-(4-ethylpiperazin-1yl)anilino]pyrimidin-4-yl]-1-methylurea]
[1]; 2D monolayer HEC1B, BGJ398 in combination with paclitaxel (FIG. 10)
  effect on anticancer effects of paclitaxel: enhance anticancer effects of paclitaxel
[1]; HEC1B, BGJ398 in combination with paclitaxel (FIGS. 10 and 11)
  cell apoptosis: cell apoptosis is further increased
[2]; 2D monolayer Hs578T, BGJ398 in combination with paclitaxel (FIG. 13)
  effect on anticancer effects of paclitaxel: enhance anticancer effects of paclitaxel
[2]; Hs578T, BGJ398 in combination with paclitaxel (FIGS. 13 and 14)
  cell apoptosis: cell apoptosis is further increased
